For the first assay, the target named is T1, human estrogen receptor (Homo sapiens, UniProt P03372).
T1 sequence (P03372 1-595): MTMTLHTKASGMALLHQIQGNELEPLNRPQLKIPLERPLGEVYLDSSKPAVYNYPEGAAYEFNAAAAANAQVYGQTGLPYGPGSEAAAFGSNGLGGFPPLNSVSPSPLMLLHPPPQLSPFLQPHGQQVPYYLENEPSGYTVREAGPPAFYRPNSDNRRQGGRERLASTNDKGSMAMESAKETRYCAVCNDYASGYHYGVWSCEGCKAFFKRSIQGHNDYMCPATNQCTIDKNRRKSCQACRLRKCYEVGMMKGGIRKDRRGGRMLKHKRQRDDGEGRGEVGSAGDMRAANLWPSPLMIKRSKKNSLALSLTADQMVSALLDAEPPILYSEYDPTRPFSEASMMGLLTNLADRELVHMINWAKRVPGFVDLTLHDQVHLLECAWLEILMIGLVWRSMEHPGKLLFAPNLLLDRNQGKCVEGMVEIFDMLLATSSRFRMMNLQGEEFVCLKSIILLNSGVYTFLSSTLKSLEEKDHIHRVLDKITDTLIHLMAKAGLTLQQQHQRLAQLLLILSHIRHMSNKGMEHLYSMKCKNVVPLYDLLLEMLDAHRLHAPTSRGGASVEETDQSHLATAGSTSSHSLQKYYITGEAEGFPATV
Description: suitable in vitro assay whose results correlate with the MCF-7 assay (estrogenic activity). The following applies: in vitro assay correlated to MCF-7 assay through common reference compounds.
For the molecule `CC(C)(C)c1cc(O)c(C(C)(C)C)cc1O` [Structure 12, 2,5-di-t-butylhydroquinone], the estrogenic activity result is “do not exhibit appreciable estrogenic activity”.
On the same count and under the same terms, the result for `CC(C)(C)c1cc(Cc2cc(C(C)(C)C)c(O)c(C(C)(C)C)c2)cc(C(C)(C)C)c1O` [Structure 8, 4,4′-methylenebis(2,6-di-t-butylphenol)] reads “do not exhibit appreciable estrogenic activity”; that for `Cc1cc(Cc2cc(C)c(O)c(C)c2)cc(C)c1O` [Structure 6, 4,4′-methylenebis(2,6-dimethylphenol)], “do not exhibit appreciable estrogenic activity”.
The same measure, in the same setting: the entry for `CCCC(c1cc(C(C)(C)C)c(O)cc1C)c1cc(C(C)(C)C)c(O)cc1C` [Structure 7, 4,4′-butylidenebis(2-t-butyl-5-methylphenol)] is “do not exhibit appreciable estrogenic activity”.
Same read-out and setting: the entry for `Cc1cc(Cc2cc(C)cc(C(C)(C)C)c2O)c(O)c(C(C)(C)C)c1` [Structure 9] is “do not exhibit appreciable estrogenic activity”.

The subject of a further assay is MCF-7, clone WS8 cells. In words: MCF-7 cell proliferation assay of estrogenic activity. The assay is classed as cell-based, human. The following applies: log10 of Relative Proliferative Effect (EC50 ratio versus 17-beta estradiol times 100); b102 calls the values expected or measured. The source says: The MCF-7 assay is a useful test for assessing whether a polyhydric phenol compound is appreciably non-estrogenic. The MCF-7 assay uses MCF-7, clone WS8 cells to measure whether and to what extent a substance induces cell proliferation via estrogen receptor (ER)-mediated pathways. The method is described in “Test Method Nomination: MCF-7 Cell Proliferation Assay of Estrogenic Activity” submitted for validation by CertiChem, Inc. to the National Toxicology Program Interagency Center for the Evaluation of Alternative Toxicological Methods (NICEATM) on Jan. 19, 2006 (available online at iccvam.niehs.nih.gov/methods/endocrine/endodocs/SubmDoc.pdf).
A brief summary of the method of the aforementioned MCF-7 assay is provided below. MCF-7, clone WS8 cells are maintained at 37° C. in RMPI (Roswell Park Memorial Institute medium) containing Phenol Red (e.g., GIBCO Catalog Number 11875119) and supplemented with the indicated additives for routine culture. An aliquot of cells maintained at 37° C. are grown for two days in phenol-free media containing 5% charcoal stripped fetal bovine serum in a 25 cm^2 tissue culture flask. Using a robotic dispenser such as an EPMOTION™ 5070 unit, MCF-7 cells are then seeded at 400 cells per well in 0.2 ml of hormone-free culture medium in Corning 96-well plates. The cells are adapted for 3 days in the hormone-free culture medium prior to adding the chemical to be assayed for estrogenic activity. The media containing the test chemical is replaced daily for 6 days. At the end of the 7 day exposure to the test chemical, the media is removed, the wells are washed once with 0.2 ml of HBSS (Hanks' Balanced Salt Solution), and then assayed to quantify amounts of DNA per well using a micro-plate modification of the Burton diphenylamine (DPA) assay, which is used to calculate the level of cell proliferation.
RPE is the ratio between the EC50 of the test chemical and the EC50 of the control substance 17-beta estradiol times 100, where EC50 is “effective concentration 50%” or half-maximum stimulation concentration for cell proliferation measured as total DNA in the MCF-7 assay.
On to `O=S(=O)(c1ccc(O)cc1)c1ccc(O)cc1` [Bisphenol S], for which the “Log RPE” value was −2.
On to `Oc1ccccc1Cc1ccccc1O` [Structure 11], for which the “Log RPE” value is on record as “less than −4”.
Still for that read-out and setting: the result for `C[C@]12CC[C@@H]3c4ccc(O)cc4CC[C@H]3[C@@H]1CC[C@@H]2O` [17β-estradiol] reads 2.00; that for `Oc1ccc(Cc2ccc(O)cc2)cc1` [Bisphenol F], −2; that for `CC(C)(C)c1cc(O)c(C(C)(C)C)cc1O` [Structure 12], “less than −4”.

Values taken from patent US10316211B2, “Stabilizer and coating compositions thereof” (SWIMC LLC, priority 2012, dated 2019).
